From patent US20190315823A1, “SMALL CATIONIC ANTI-BIOFILM AND IDR PEPTIDES” (priority 2013, published 2019)
Ends that are not written are not given here.

Experiments:
[1] = test system: methicillin resistant Staphylococcus aureus (MRSA) biofilm; settings: approximate peptide concentration […] (around 3 μg/ml); compared to untreated samples
Description: Methods of assessment of anti-biofilm activity—Biofilm formation was initially analyzed using a static abiotic solid surface assay as described elsewhere (de la Fuente-Nunez et al., 2012). Dilutions (1/100) of overnight cultures were incubated in BM2 biofilm-adjusted medium [62 mM potassium phosphate buffer (pH 7), 7 mM (NH4)2SO4, 2 mM MgSO4, 10 μM FeSO4, 0.4% (wt/vol) glucose, 0.5% (wt/vol) Casamino Acids], or a nutrient medium such as Luria Broth, in polypropylene microtiter plates (Falcon, United States) in the absence (control) or presence of peptide. Peptide was added at time zero (prior to adding the diluted, overnight cultures) in varying concentrations, and the decrease in biofilm formation was recorded at 22-46 h for most bacteria. Planktonic cells were removed, biofilm cells adhering to the side of the tubes were stained with crystal violet, and absorbance at 595 nm was measured using a microtiter plate reader (Bio-Tek Instruments Inc., United States). Some peptides were screened against two Gram negative organisms, P. aeruginosa and K. pneumoniae using a Bioflux apparatus (AutoMate Scientific, Berkeley, Calif.; http://www.autom8.com/bioflux_biofilm.html), which allows for the high-throughput, real-time analysis of biofilms.

[2] = test system: LPS-stimulated human peripheral blood mononuclear cells (IL1-β); type: cell-based; settings: Table 12, cells stimulated with 10 ng/ml LPS; for IL1β Production: LPS alone 1313 (HH2 derivatives), 1927 (1018 derivatives), 2455 (1002 and hybrid peptides) pg/ml
Description: LPS from P. aeruginosa strain H103 was highly purified free of proteins and lipids using the Darveau-Hancock method. Briefly, P. aeruginosa was grown overnight in LB broth at 37° C. Cells were collected and washed and the isolated LPS pellets were extracted with a 2:1 chloroform:methanol solution to remove contaminating lipids. Purified LPS samples were quantitated using an assay for the specific sugar 2-keto-3-deoxyoctosonic acid (KDO assay) and then resuspended in endotoxin-free water (Sigma-Aldrich).

[3] = test system: human peripheral blood mononuclear cells (MCP-1); test: SPOT-synthesized derivative screen: production of chemokine MCP-1; type: cell-based; settings: Table 12, No LPS, human PBMC, peptide at ~18-24 μM; for MCP1: background subtracted 139 (HH2 derivatives), 170 (1018 derivatives), 242 (1002 and hybrid peptides) pg/ml
Description: Venous blood (20 ml) from healthy volunteers was collected in Vacutainer® collection tubes containing sodium heparin as an anticoagulant (Becton Dickinson, Mississauga, ON) in accordance with UBC ethical approval and guidelines. Blood was diluted 1:1 with complete RPMI 1640 medium and separated by centrifugation over a Ficoll-Paque® Plus (Amersham Biosciences, Piscataway, N.J., USA) density gradient. White blood cells were isolated from the buffy coat, washed twice in RPMI 1640 complete medium, and the number of peripheral blood mononuclear cells (PBMC) was determined by Trypan blue exclusion. PBMC (5×10^5) were seeded into 12-well tissue culture dishes (Falcon; Becton Dickinson) at 0.75 to 1×10^6 cells/ml at 37° C. in 5% CO2. The above conditions were chosen to mimic conditions for circulating blood monocytes entering tissues at the site of infection via extravasation.
Following incubation of the cells under various treatment regimens, the tissue culture supernatants were centrifuged at 1000×g for 5 min, then at 10,000×g for 2 min to obtain cell-free samples. Supernatants were aliquoted and then stored at −20° C. prior to assay for various chemokines by capture ELISA (eBioscience and BioSource International Inc., CA, USA respectively)

## 1018-V12: single substituted 1018 peptide (VRLIVAVRIWRV-NH2) [Peptide 1018-V12]
[1]
  % Biofilm inhibition: 56%
[2]
  Fold change in IL1β relative to no peptide LPS stimulated cells: 0.51
  IL1β Production: 673 pg/mL
[3]
  Fold increase in MCP1 cf. untreated cells: 1.3
  MCP1: 56 pg/mL

## HH2-Q4: single substituted HH2 peptide (VQLQIRVAVIRA-NH2)
[1]
  % Biofilm inhibition: 45%
[2]
  Fold change in IL1β relative to no peptide LPS stimulated cells: 0.62
  IL1β Production: 817 pg/mL
[3]
  Fold increase in MCP1 cf. untreated cells: 2.4
  MCP1: 246 pg/mL

## HH2-G10: single substituted HH2 peptide (VQLRIRVAVGRA-NH2)
[1]
  % Biofilm inhibition: 58%
[2]
  Fold change in IL1β relative to no peptide LPS stimulated cells: 1.06
  IL1β Production: 1391 pg/mL
[3]
  Fold increase in MCP1 cf. untreated cells: 72
  MCP1: 12063 pg/mL

## 1002-I11: single substituted 1002 peptide (VQRWLIVWRIIK-NH2) [Peptide 1002-I11]
[1]
  % Biofilm inhibition: 67%
[2]
  Fold change in IL1β relative to no peptide LPS stimulated cells: 0.05
  IL1β Production: 127 pg/mL
[3]
  Fold increase in MCP1 cf. untreated cells: 2.0
  MCP1: 238.8 pg/mL

## 1018-R5: single substituted 1018 peptide (VRLIRAVRIWRR-NH2) [Peptide 1018-R5]
[1]
  % Biofilm inhibition: 4%
[2]
  Fold change in IL1β relative to no peptide LPS stimulated cells: 1.50
  IL1β Production: 1973 pg/mL
[3]
  Fold increase in MCP1 cf. untreated cells: 0.8
  MCP1: -41 pg/mL

## 1002-K4: single substituted 1002 peptide (VQRKLIVWRIRK-NH2) [Peptide 1002-K4]
[1]
  % Biofilm inhibition: 0%
[2]
  Fold change in IL1β relative to no peptide LPS stimulated cells: 0.43
  IL1β Production: 1065 pg/mL
[3]
  Fold increase in MCP1 cf. untreated cells: 1.4
  MCP1: 106.3 pg/mL

## 1002-W1: single substituted 1002 peptide (WQRWLIVWRIRK-NH2) [Peptide 1002-W1]
[1]
  % Biofilm inhibition: 76%
[2]
  Fold change in IL1β relative to no peptide LPS stimulated cells: 0.05
  IL1β Production: 127 pg/mL
[3]
  Fold increase in MCP1 cf. untreated cells: 3.6
  MCP1: 622.0 pg/mL

## 1018-K11: single substituted 1018 peptide (VRLIVAVRIWKR-NH2) [Peptide 1018-K11]
[1]
  % Biofilm inhibition: 68%
[2]
  Fold change in IL1β relative to no peptide LPS stimulated cells: 0.13
  IL1β Production: 170 pg/mL
[3]
  Fold increase in MCP1 cf. untreated cells: 9.3
  MCP1: 1419 pg/mL

## 1018-R7: single substituted 1018 peptide (VRLIVARRIWRR-NH2) [Peptide 1018-R7]
[1]
  % Biofilm inhibition: 0%
[2]
  Fold change in IL1β relative to no peptide LPS stimulated cells: 1.68
  IL1β Production: 2201 pg/mL
[3]
  Fold increase in MCP1 cf. untreated cells: 1.9
  MCP1: 161 pg/mL

## HH2-Q8: single substituted HH2 peptide (VQLRIRVQVIRA-NH2)
[1]
  % Biofilm inhibition: 65%
[2]
  Fold change in IL1β relative to no peptide LPS stimulated cells: 0.97
  IL1β Production: 1279 pg/mL
[3]
  Fold increase in MCP1 cf. untreated cells: 9.4
  MCP1: 1421 pg/mL

## HH2-W2: single substituted HH2 peptide (VWLRIRVAVIRA-NH2)
[1]
  % Biofilm inhibition: 70%
[2]
  Fold change in IL1β relative to no peptide LPS stimulated cells: 0.98
  IL1β Production: 1293 pg/mL
[3]
  Fold increase in MCP1 cf. untreated cells: 12
  MCP1: 1802 pg/mL

## 1018-L4: single substituted 1018 peptide (VRLLVAVRIWRR-NH2) [Peptide 1018-L4]
[1]
  % Biofilm inhibition: 64%
[2]
  Fold change in IL1β relative to no peptide LPS stimulated cells: 0.10
  IL1β Production: 127 pg/mL
[3]
  Fold increase in MCP1 cf. untreated cells: 0.9
  MCP1: -10 pg/mL

## HH2-L12: single substituted HH2 peptide (VQLRIRVAVIRL-NH2)
[1]
  % Biofilm inhibition: 51%
[2]
  Fold change in IL1β relative to no peptide LPS stimulated cells: 0.23
  IL1β Production: 301 pg/mL
[3]
  Fold increase in MCP1 cf. untreated cells: 24
  MCP1: 3916 pg/mL

## HH2-I11: single substituted HH2 peptide (VQLRIRVAVIIA-NH2)
[1]
  % Biofilm inhibition: 55%
[2]
  Fold change in IL1β relative to no peptide LPS stimulated cells: 1.07
  IL1β Production: 1402 pg/mL
[3]
  Fold increase in MCP1 cf. untreated cells: 60
  MCP1: 9977 pg/mL

## HH2-K3: single substituted HH2 peptide (VQKRIRVAVIRA-NH2)
[1]
  % Biofilm inhibition: 14%
[2]
  Fold change in IL1β relative to no peptide LPS stimulated cells: 1.34
  IL1β Production: 1761 pg/mL
[3]
  Fold increase in MCP1 cf. untreated cells: 11
  MCP1: 1763 pg/mL

## HH2-K2: single substituted HH2 peptide (VKLRIRVAVIRA-NH2)
[1]
  % Biofilm inhibition: 69%
[2]
  Fold change in IL1β relative to no peptide LPS stimulated cells: 0.71
  IL1β Production: 937 pg/mL
[3]
  Fold increase in MCP1 cf. untreated cells: 7.9
  MCP1: 1168 pg/mL

## 1002-A1: single substituted 1002 peptide (AQRWLIVWRIRK-NH2) [Peptide 1002-A1]
[1]
  % Biofilm inhibition: 55%
[2]
  Fold change in IL1β relative to no peptide LPS stimulated cells: 0.05
  IL1β Production: 127 pg/mL
[3]
  Fold increase in MCP1 cf. untreated cells: 19.8
  MCP1: 4559.2 pg/mL

## 1002-W12: single substituted 1002 peptide (VQRWLIVWRIRW-NH2) [Peptide 1002-W12]
[1]
  % Biofilm inhibition: 71%
[2]
  Fold change in IL1β relative to no peptide LPS stimulated cells: 0.05
  IL1β Production: 127 pg/mL
[3]
  Fold increase in MCP1 cf. untreated cells: 2.7
  MCP1: 412.5 pg/mL

## 1018-I11: single substituted 1018 peptide (VRLIVAVRIWIR-NH2) [Peptide 1018-I11]
[1]
  % Biofilm inhibition: 16%
[2]
  Fold change in IL1β relative to no peptide LPS stimulated cells: 1.35
  IL1β Production: 1775 pg/mL
[3]
  Fold increase in MCP1 cf. untreated cells: 1.5
  MCP1: 83 pg/mL

## 1002-G6: single substituted 1002 peptide (VQRWLGVWRIRK-NH2) [Peptide 1002-G6]
[1]
  % Biofilm inhibition: 26%
[2]
  Fold change in IL1β relative to no peptide LPS stimulated cells: 0.45
  IL1β Production: 1098 pg/mL
[3]
  Fold increase in MCP1 cf. untreated cells: 0.9
  MCP1: -36.2 pg/mL

## HH2-V6: single substituted HH2 peptide (VQLRIVVAVIRA-NH2)
[1]
  % Biofilm inhibition: 39%
[2]
  Fold change in IL1β relative to no peptide LPS stimulated cells: 0.53
  IL1β Production: 694 pg/mL
[3]
  Fold increase in MCP1 cf. untreated cells: 40
  MCP1: 6624 pg/mL

## 1002-V4: single substituted 1002 peptide (VQRVLIVWRIRK-NH2) [Peptide 1002-V4]
[1]
  % Biofilm inhibition: 69%
[2]
  Fold change in IL1β relative to no peptide LPS stimulated cells: 0.08
  IL1β Production: 190 pg/mL
[3]
  Fold increase in MCP1 cf. untreated cells: 10.5
  MCP1: 2300.2 pg/mL

## 1018-W2: single substituted 1018 peptide (VWLIVAVRIWRR-NH2) [Peptide 1018-W2]
[1]
  % Biofilm inhibition: 68%
[2]
  Fold change in IL1β relative to no peptide LPS stimulated cells: 0.73
  IL1β Production: 962 pg/mL
[3]
  Fold increase in MCP1 cf. untreated cells: 1.5
  MCP1: 83 pg/mL

## 1002-L6: single substituted 1002 peptide (VQRWLLVWRIRK-NH2) [Peptide 1002-L6]
[1]
  % Biofilm inhibition: 52%
[2]
  Fold change in IL1β relative to no peptide LPS stimulated cells: 0.05
  IL1β Production: 127 pg/mL
[3]
  Fold increase in MCP1 cf. untreated cells: 1.3
  MCP1: 68.0 pg/mL
